In patent US20120213727A1, “THERAPEUTIC USES OF OLIGOMERIC AND POLYMERIC MONOTERPENES” (REGENERA PHARMA LTD., priority 2009, published 2012):

System: ARPE-19 cells
Assay: Neuronal-like differentiation in ARPE-19 retinal pigment epithelial cell cultures
Type: cell-based, human
Conditions: 72 hrs incubation, optical microscope
Protocol: ARPE-19 cells (obtained from the American Type Culture Collection, ATCC) were plated in flat bottom 96 well tissue culture microplates (Costar) at a concentration of 2-5×10^3 cells per well (1-2.5×10^4 cells/mL) in a growth medium consisting of DMEM:Ham F-12, 1:1, supplemented with 10% Fetal Bovine Serum, […] glutamine, 100 units/mL penicillin and 100 μg/mL streptomycin. The cells were allowed to adhere to the plate surfaces overnight prior to treatment with polymeric monoterpene.
Each type of polymeric monoterpene was synthesized to provide a 10% solution in grape seed oil, olive oil, Mygliol 810 or Mygliol 812. The preparations were added to the cultures at volumes of 0.5 μl, 2 μl, 5 μl and 20 μl. […]
The cultures were incubated in a 37° C., 5% CO2 incubator for 72 hrs. The medium was then removed, the cultures washed twice with phosphate buffered saline (PBS), fixed with absolute methanol for 10 min and stained with Hemacolor® reagents (Boehringer Mannheim), which stain cells in a manner similar to Giemsa, and may be used in a quantitative cell viability assay (see Keisari, Y. A colorimetric microtiter assay for the quantitation of cytokine activity on adherent cells in tissue culture. J. Immunol. Methods 146, 155-161, 1992). The degree of differentiation was determined by optical microscope. […]

For `CC=C(C)C=CC=C(C)C` [monomeric alloocimene, 2,6-dimethyl-2,4,6-octatriene], the “induction of neuronal differentiation (morphology)” value was “showed no such effects” and the “induction of neuronal differentiation (morphology)” value (listed as monomeric allocimene) was “has no influence on the cells”.
